≈ marks a conversion by molar mass, not a printed value. Like-named read-outs stand apart in the source and are kept apart here.
Key:
Format in all cases: cell-based
[1] = tested on: methicillin resistant Staphylococcus epidermidis (ATCC 27626); experiment: microbe, parasite or virus in culture
Experimental: (§1) The antimicrobial testing was conducted by TosLab A/S (Tromsø, Norway). Each compound was diluted to 1 mg/ml in water and tested in duplicates at 200, 100, 50, 35, 15, 10, 5, 2.5, 1, 0.5 μg/ml except 4n which was tested at 50, 35, 15, 10, 5, 2.5, 1, 0.5 μg/ml due to solubility problems. All tested compounds were di TFA salts.
(§2) The bacterial strains were grown in 2% Bacto Peptone water until exponential growth was achieved. […] A bacterial concentration of 2×10^6 cfu/ml was used. Both negative control (no peptide) and positive control (Gentamicin) was used for all bacterial strains. Growth or no growth was judged by the turbidity of the wells.
Methicillin resistant Staphylococcus epidermidis (ATCC 27626)
(§3) Antimicrobial assays: 200 μg/ml
(§4) Suitable methodologies are described in Example 1.
(§5) Each compound was tested in duplicates at 200, 100, 50, 35, 15, 10, 5, 2.5, 1, 0.5 μg/ml. All tested compounds were di-trifluoroacetic acid salts.

[2] = tested on: methicillin resistant Staphylococcus aureus (ATCC 33591); experiment: microbe, parasite or virus in culture
Experimental: as §1, §2
Methicillin resistant Staphylococcus aureus (ATCC 33591)
as §3, §4, §5

[3] = tested on: Escherichia coli (ATTC 25922); experiment: microbe, parasite or virus in culture; conditions: for MIC E. coli: Example 1, di TFA salts, highest concentration tested 200 μg/ml
Experimental: as §1, §2
Escherichia coli (ATTC 25922)
as §3, §4, §5

[4] = tested on: Staphylococcus aureus (ATTC 25923); experiment: microbe, parasite or virus in culture
Experimental: as §1, §2
Staphylococcus aureus (ATTC 25923)
as §3, §4, §5

human red blood cells = experiment: cells
Experimental: The hemolytic testing against human erythrocytes was conducted by Lytix Biopharma A/S (Tromso, Norway). Each compound was tested from a concentration of 1 mg/ml and lower, except 4k and 4n which was only tested up to 0.5 mg/ml due to solubility problems. 8 mL of blood was collected from adult healthy male donors. The blood was divided equally and distributed in a commercial available EDTA containing test tube (BD vacutainer, 7.2 mg K2 EDTA) and in a 10 mL reaction vial containing 40 μL of a heparin solution (1000 U/mL in 0.9% sodium chloride). After 30 minutes the hematocrit of the EDTA treated blood was determined. The heparinized blood was centrifuged for 10 minutes at 1500 rpm and the supernatant removed. Subsequently the RBCs were washed with prewarmed PBS three times, and diluted to 10% hematocrit. The compounds dissolved in PBS (concentration 1 μg/mL to 1000 µg/mL) and the erythrocytes were incubated under agitation at 37° C. for one hour. A positive control with an end concentration of 0.1% TRITON X-100 (nonionic surfactant) and a negative control containing pure PBS buffer were included. The samples were centrifuged (4000 rpm) for 5 minutes and the absorption of the supernatant was measured at 405 nm. The values given in Table 1A correspond to 50% hemolysis.
The plasma fraction of heparinized human blood was first removed by centrifugation and three additional washing steps with 37° C. pre-warmed phosphate buffered saline (PBS). Subsequently, the human RBC were diluted to 10% hematocrit and the β^2,2-amino acid derivatives were dissolved in PBS providing concentrations ranging from 1-1000 μg/mL. The diluted RBC were added to the compound solutions to a final erythrocyte concentration of 1% v/v. PBS and TRITON X-100 (non-ionic surfactant), in a final concentration of 0.1% v/v, were included as negative and positive control. After 1 hour agitated incubation at 37° C. the samples were centrifuged at 4000 rpm for 5 min. Release of hemoglobin was determined by measuring the absorbance of the supernatant at 405 nm. Hemolytic activity was calculated as the ratio of treated sample with β^2,2-amino acid derivative and tenside treated sample according to the formula: […]

[5] = Staphylococcus epidermidis, ATCC 27626 / MRSE, Example 2, values separated by / are repeat tests, read-out: Antimicrobial potency (MIC) MRSE
[6] = Staphylococcus aureus, ATCC 33591 / MRSA, Example 2, values separated by / are repeat tests, read-out: Antimicrobial potency (MIC) MRSA
[7] = Escherichia coli, Example 2, values separated by / are repeat tests, read-out: Antimicrobial potency (MIC) E. coli
[8] = Staphylococcus aureus, Example 2, values separated by / are repeat tests, read-out: Antimicrobial potency (MIC) S. aureus
[9] = ATCC 33591, read-out: MIC MTRSA
[10] = Example 1, 50% hemolysis of human red blood cells, highest concentration tested 1000 μg/ml
[11] = ATTC 25922, read-out: MIC E. coli
[12] = ATTC 25923, read-out: MIC S. aureus
[13] = Homo sapiens, Erythrocyte, Example 2, highest concentration tested 1000 μg/ml, * low solubility in the test media, read-out: Toxicity RBC (EC50)

Row | Compound | MIC [1, 5] [µg/mL] | MIC [2, 6] [µg/mL] | MIC [3, 7] [µg/mL] | MIC [4, 8] [µg/mL] | MBC MRSE ([1]; ATCC 27626) [µM] | MIC ([1]; ATCC 27626, read-out: MIC MRSE) [µM] | MBC MRSA ([2]; ATCC 33591) [µM] | EC50 RBC (human red blood cells; [10]) | MBC E. coli ([3]; ATTC 25922) [µM] | MIC [3, 11] [µM] | MIC E. coli ([3]; ATTC 25922) | MBC S. aureus ([4]; ATTC 25923) [µM] | MIC [4, 12] [µM] | MIC MRSA ([2]; ATCC 33591) [µM] | also measured
1 | CCCC(CN)(CCC)C(=O)NCCN [Compound 1, N-(2-aminoethyl)-2-(aminomethyl)-2-propyl-pentanamide] | > 200 | > 200 | > 200 | > 200 | – | – | – | – | – | – | – | – | – | – | –
2 | CN(C)CCN1CCN(C(=O)C(CN)(CCCc2ccccc2)CCCc2ccccc2)CC1 [Compound 4a] | – | – | – | – | >360 | 72 | >360 | — (The notation “—”denotes no detectable activity (MIC or EC50) within the concentration range tested.) | >360 | 289 | — (The notation “—”denotes no detectable activity (MIC or EC50) within the concentration range tested.) | >360 | 289 | – | MIC MRSE ([1]; Example 1, ATCC 27626, di TFA salts, highest concentration tested 200 μg/ml): — (The notation “—”denotes no detectable activity (MIC or EC50) within the concentration range tested.); MIC [2, 9]: 72 µM; MIC MRSA ([2]; Example 1, ATCC 33591, di TFA salts, highest concentration tested 200 μg/ml): — (The notation “—”denotes no detectable activity (MIC or EC50) within the concentration range tested.); EC50 RBC (human red blood cells; Example 4, hemolytic activity, human red blood cells, highest concentration tested 1000 μg/ml): — (The notation “—” denotes no detectable activity (MIC or EC50) within the concentration range tested.); MIC S. aureus ([4]; Example 1, ATTC 25923, di TFA salts, highest concentration tested 200 μg/ml): — (The notation “—”denotes no detectable activity (MIC or EC50) within the concentration range tested.)
3 | CN(C)CCN1CCN(C(=O)C(CN)(Cc2ccc(C(F)(F)F)cc2)Cc2ccc(C(F)(F)F)cc2)CC1 [Compound 4b] | – | – | – | – | 75 (≈ 40.8 µg/mL) | – | 150 (≈ 81.7 µg/mL) | — (The notation “—”denotes no detectable activity (MIC or EC50) within the concentration range tested.) | >301 | 129 | — (The notation “—”denotes no detectable activity (MIC or EC50) within the concentration range tested.) | 301 (≈ 164 µg/mL) | – | 150 (≈ 81.7 µg/mL) | Therapeutic index MRSE ([1]; ATCC 27626): 17; Therapeutic index MRSA ([2]; ATCC 33591): 172; MIC [2, 9]: 6.5 µM; EC50 (human red blood cells; red cells of human): 1120 µM; Therapeutic index E. coli ([3]; ATTC 25922): 8.6; Therapeutic index S. aureus ([4]; ATTC 25923): 25
4 | N=C(N)NCCC[C@H](NC(=O)C(CN)(CCc1ccccc1)CCc1ccccc1)C(N)=O [Compound 4e] | – | – | – | – | 74 (≈ 33.5 µg/mL) | 74 | 147 (≈ 66.5 µg/mL) | — (The notation “—”denotes no detectable activity (MIC or EC50) within the concentration range tested.) | >294 | – | — (The notation “—”denotes no detectable activity (MIC or EC50) within the concentration range tested.) | 147 (≈ 66.5 µg/mL) | 147 | 147 (≈ 66.5 µg/mL) | –
5 | N=C(N)NCCC[C@H](NC(=O)C(CN)(CCCc1ccccc1)CCCc1ccccc1)C(N)=O [Compound 4f] | – | – | – | – | 49 (≈ 23.6 µg/mL) | 35 | 49 (≈ 23.6 µg/mL) | — (The notation “—”denotes no detectable activity (MIC or EC50) within the concentration range tested.) | >282 | – | — (The notation “—”denotes no detectable activity (MIC or EC50) within the concentration range tested.) | 49 (≈ 23.6 µg/mL) | 49 | 49 (≈ 23.6 µg/mL) | –
6 | CC(C)c1ccc(CC(CN)(Cc2ccc(C(C)C)cc2)C(=O)N[C@@H](CCCNC(=N)N)C(N)=O)cc1 [Compound 4j] | – | – | – | – | 6.8 (≈ 3.46 µg/mL) | 6.8 | 6.8 (≈ 3.46 µg/mL) | – | 136 (≈ 69.2 µg/mL) | 136 | – | 6.8 (≈ 3.46 µg/mL) | 10.2 | 6.8 (≈ 3.46 µg/mL) | EC50 (human red blood cells; red cells of human): 386 µM
7 | Cc1cc(C)cc(CC(CN)(Cc2cc(C)cc(C)c2)C(=O)N[C@@H](CCCNC(=N)N)C(N)=O)c1 [Compound 4l] | – | – | – | – | 21 (≈ 10.1 µg/mL) | 35 | 49 (≈ 23.6 µg/mL) | — (The notation “—”denotes no detectable activity (MIC or EC50) within the concentration range tested.) | >282 | – | — (The notation “—”denotes no detectable activity (MIC or EC50) within the concentration range tested.) | 49 (≈ 23.6 µg/mL) | 60 | 49 (≈ 23.6 µg/mL) | –
8 | CC(C)(C)c1cc(CC(CN)(Cc2cc(C(C)(C)C)cc(C(C)(C)C)c2)C(=O)N[C@@H](CCCNC(=N)N)C(N)=O)cc(C(C)(C)C)c1 [Compound 4n] | – | – | – | – | 3.4 (≈ 2.21 µg/mL) | 10.1 | 4.6 (≈ 2.99 µg/mL) | – | 5.7 (≈ 3.7 µg/mL) | 5.7 | – | 4.6 (≈ 2.99 µg/mL) | 2.9 | 2.1 (≈ 1.36 µg/mL) | EC50 (human red blood cells; red cells of human): 99 µM
9 | CN(C)CCNC(=O)C(CN)(Cc1ccccc1)Cc1ccccc1 [Compound 23, 3-amino-2,2-dibenzyl-N-(2-(dimethylamino)-ethyl)-propanamide] | > 100 | > 100 | > 100 | > 100 | – | – | – | – | – | – | – | – | – | – | EC50 (human red blood cells; [13]): > 1000 µg/mL
10 | CN(C)CCNC(=O)C(CN)(Cc1ccc(C(C)(C)C)cc1)Cc1ccc(C(C)(C)C)cc1 [Compound 24, 3-amino-2,2-bis(4-tert-butylbenzyl)-N-(2-(dimethylamino)-ethyl)-propanamide] | 2.5 | 5 | 5 | 5 | – | – | – | – | – | – | – | – | – | – | EC50 (human red blood cells; [13]): 185 µg/mL
11 | Cc1cc(C)cc(CC(CN)(Cc2cc(C)cc(C)c2)C(=O)N2CCN(CCN(C)C)CC2)c1 [Compound 35, 3-amino-1-(4-(2-(dimethylamino)ethyl)piperazin-1-yl)-2,2-bis(3,5-dimethylbenzyl)propan-1-one] | 35 | 50 | 100 | 50 | – | – | – | – | – | – | – | – | – | – | –
